Experimental data taken from publication PMC9268013, “Design, Synthesis, and Biological Evaluation of N14-Amino Acid-Substituted Tetrandrine Derivatives as Potential Antitumor Agents against Human Colorectal Cancer” (Molecules, 2022).

Assays:
[1] = test system: human breast cancer cells (MCF-7); assay: MTT antiproliferative assay, MCF-7; format: cell-based
Method: Human lung cancer cell (A549,), human umbilical vein endothelial cells (HUVECs,), human colon cancer cell lines (HCT-15), human breast cancer cells (MCF-7), human liver cancer cells (HepG2), human pancreatic cancer cells (BxPC-3), and human hepatic cell line (L-02) were obtained from the Sichuan University. A549, HUVECs, and L-02 were cultured in DMEM medium (high glucose, HyClone, GE Healthcare, Sydney, Australia). Human colon cancer cell lines HCT-15, human pancreatic cancer cells […] BxPC-3 were cultured in RPMI-1640. Human breast cancer cells MCF-7 and human liver cancer cells HepG2 were cultured in MEM medium. All the mediums, including 10% fetal bovine serum (FBS, HyClone, GE Healthcare, Sydney, Australia) and 1% ampicillin/streptomycin, were used to culture the above cells at 37 °C in a humidified atmosphere (5% CO2 and 95% air).
The antiproliferative activity of the title compounds was determined using the MTT (3-(4,5-dimethylthiazol-2-yl)-2,5-diphenyltetrazolium bromide, Sigma-Aldrich, Saint Louis, MO, USA) assay on different cells. Cells lines were seeded into 96-well plates at a density of 2000 to 6000 cells/well. DMSO was used to dissolve the test compounds, and TET was used as a positive control. After 24 h, the test compounds were added at different concentrations (0.625, 1.25, 2.5, 5, 10, and 20 μM) and incubated at 37 °C for 72 h. MTT was added to each well at a final concentration of 0.5 mg/mL and incubated at 37 °C for 4 h. Then, 150 μL of DMSO was added to each well to dissolve the formazan crystals. The absorbance was measured at 570 nm by a microplate reader (ELX800UV, Bio-Tek, Windoski, VT, USA). All measurements were repeated at least three times under the same conditions. Graphpad Prism 8.0 was used to calculate the IC50 values.

[2] = test system: HCT-15 cells; assay: Transwell invasion assay; format: cell-based, human; details: HCT-15, transwell, 5 and 10 μM, 20 h
Method: The cell motility inhibitory effect of 16 on HCT-15 cells was evaluated by invasion assay. Briefly, cells were harvested and resuspended in serum-free medium that contained 0.625, 1.25, 2.5, 5, and 10 μM of 16, and were seeded into the upper wells of a transwell chamber (Millicell, […] pore size, 12-mm diameter Millipore) coated with 50 μL of Matrigel (1:3 dilution in serum-free medium, Corning/BD Biosciences) at a density of 2 × 10^5 cells/mL. Meanwhile, 600 μL medium containing 10% FBS and corresponding samples were added into the lower chambers. Then, 20 h later, the invading cells were fixed with 4% paraformaldehyde and stained with 0.2% crystal violet for 30 min. Afterwards, the chambers were washed twice with PBS and left to dry. Cells which had migrated to the lower chamber of the transwell were photographed using a digital camera with an inverted microscope (Nikon ECLIPSE TE2000-U, Tokyo, Japan), and the crystal violet positive cells were counted.

[3] = test system: p62/SQSTM1 (P62); assay: Western blot, p62/SQSTM1 in HCT-15 cells; format: cell-based, human; details: HCT-15, 1.25, 2.5, and 5 μM, concentration-dependent, p < 0.05
Method: The protein levels in HCT-15 cells were evaluated via Western blot analysis. The cells were cultured in dishes (10^7 cells per dish) and incubated overnight at 37 °C, 0.625, 1.25, 2.5, and 5 μM of 16 was added in triplicate after 24 h of incubation. Then, the cells were harvested and lysed in Laemmli buffer (glycerol, 1M TRIS pH 6.8, 1% SDS, MQ H2O and 20% β-mercaptoethanol). The samples were boiled for 5 min at 95 °C, and the protein content was determined using a BCA kit. Equal amounts of 30 μg of sample were placed on a Tris/HCl gel and separated by SDS-PAGE electrophoresis. Then, the samples were transferred to a PVDF membrane (Milibo, Co., Ltd., Billyka, MA, USA) and blocked with 5% skimmed milk powder for 2 h. Diluted primary antibodies Bcl-2 (1:3000), Bax (1:10,000), caspase-3 (l:2000), p62 (1:1000), Beclin1 (1:1000), LC3 (1:2000), and β-actin (1:1000) were incubated overnight at 4 °C, followed by a horseradish peroxidase-conjugated goat anti-rabbit IgG secondary antibody (ProteinTech, China) for 2 h at room temperature. Then, immunoreactivity was developed with diaminobenzidine solution, and scanned and recorded by a gel imaging system (G:BOX Chemi XL1.4, Frederick, MD, USA).

SMILES: COc1cc(NC(=O)[C@@H]2CCCN2)c2cc1Oc1ccc(cc1)C[C@H]1c3cc(c(OC)cc3CCN1C)Oc1c(OC)c(OC)cc3c1[C@H](C2)N(C)CC3 [Compound 16, 14-N-(L-proline)-tetrandrine]
- IC50 ([1]; 72 h): 1.46 ± 0.13 µM
- IC50 ([1]; Homo sapiens, MCF7, 72 h): < 1.5 µM
- Invaded cells [2]: almost no cancer cells were observed
- P62 contents [3]: significantly lessened
